Tests used:
[1] = in vivo efficacy, OVCAR-5 (ovarian ca) subcutaneous tumor model; parameters: species or system athymic mice; settings: athymic, mouse, in vivo, OVCAR-5, Early-SC
Experimental: (§1) NSC 694501 was evaluated for in vivo efficacy in athymic mice bearing 8 subcutaneous tumor models: LOX and UACC-62 (melanoma), OVCAR-3 and OVCAR-5 (ovarian ca), MDA-MB-435 (breastca), SF-295 and C-6 (glioma), and LS-174T (colonca). The models were selected on the basis of hollow fiber assays and in vitro time course assays.
(§2) A qDx5 schedule conferred better efficacy than a q4Dx3 schedule in each of the 4 models tested on two schedules. NSC 694501 was active over a wide dosage range in athymic mice using compound prepared fresh just prior to injection in 1% EtOH vehicle: On a qDx5 schedule, the maximum tolerated dose was approximately 120 μg/kg/dose and the minimum effective dose in one of the most sensitive models (SF-295) was 16 μg/kg/dose.

OVCAR-5 (ovarian ca) = assay: as above; parameters: species or system athymic mice; settings: OVCAR-5, Early-SC, intravenous
Experimental: as §1, §2

LOX (melanoma) = assay: in vivo efficacy, LOX (melanoma) tumor model; parameters: species or system athymic mice; settings: intravenous
Experimental: as §1, §2

[2] = in vivo efficacy, LOX (melanoma) tumor model; parameters: species or system athymic mice; settings: athymic, mouse, in vivo, intravenous, QD X5, intravenous
Experimental: as §1, §2

[3] = tested on: 8 subcutaneous tumor models; assay: in vivo efficacy, summary over 8 subcutaneous tumor models; parameters: species or system athymic mice
Experimental: as §1, §2

[4] = as above; parameters: species or system athymic mice; settings: mouse, in vivo, intravenous; athymic mice, qDx5 schedule, prepared fresh in 1% EtOH vehicle; read-out: maximum tolerated dose
Experimental: as §1, §2

[5] = tested on: standard panel of 12 tumor cell lines; assay: hollow fiber assay; format: in vivo, mice
Experimental: A standard panel of 12 tumor cell lines was used for the routine hollow fiber screening. These included NCI-H23, NCI-H522, MDA-MB-231, MDA-MB-435, SW-620, COLO 205, LOX, UACC-62, OVCAR-3, OVCAR-5, U251 and SF-295. In addition, alternate lines were used for specialized testing of compounds on a nonroutine basis. The cell lines were cultivated in RPMI-1640 containing 10% FBS and 2 mM glutamine. On the day preceeding hollow fiber preparation, the cells were given a supplementation of fresh medium to maintain log phase growth. For fiber preparation, the cells were harvested by standard trypsinization technique and resuspended at the desired cell density ((2-10×10^6 cells/ml). The cell suspension was flushed into 1 mm (internal diameter) polyvinylidene fluoride hollow fibers with a molecular weight exclusion of 500,000 Da. The hollow fibers were heat-sealed at 2 cm intervals and the samples generated from these seals were placed into tissue culture medium and incubated at 37° C. in 5% CO2 for 24 to 48 hours prior to implantation. A total of 3 different tumor lines were prepared for each experiment so that each mouse receives 3 intraperitoneal implants (1 of each tumor line) and 3 subcutaneous implants (1 of each tumor line). On the day of implantation, samples of each tumor cell line preparation were quantitated for viable cell mass by a stable endpoint MTT assay so that the time zero cell mass is known. Mice were treated with experimental agents starting on day 3 or 4 following fiber implantation and continuing daily for 4 days. Each agent was administered by intraperitoneal injection at 2 dose levels. The fibers were collected from the mice on the day following the fourth compound treatment and subjected to the stable endpoint MTT assay. The optical density of each sample was determined spectrophotometrically at 540 nm and the mean of each treatment group was calculated. The percent net growth for each cell line in each treatment group was calculated and compared to the percent net growth in the vehicle treated controls. A 50% or greater reduction in percent net growth in the treated samples compared to the vehicle control samples was considered a positive result. Each positive result was given a score of 2 and all of the scores were totaled for a given compound. The maximum possible score for an agent is 96 (12 cell lines×2 sites×2 dose levels×2 [score]).

[6] = in vivo efficacy, MDA-MB-435 (breastca) subcutaneous tumor model; parameters: species or system athymic mice; settings: athymic, mouse, in vivo; MDA-MB-435, Early-SC, Q4D X3, intravenous
Experimental: as §1, §2

MDA-MB-435 (breastca) = assay: as above; parameters: species or system athymic mice; settings: MDA-MB-435, Early-SC, Q4D X3, 0.45 mg/kg/dose, intravenous
Experimental: as §1, §2

[7] = in vivo efficacy, UACC-62 (melanoma) subcutaneous tumor model; parameters: species or system athymic mice; settings: athymic, mouse, in vivo, UACC-62, Early-SC
Experimental: as §1, §2

UACC-62 (melanoma) = assay: as above; parameters: species or system athymic mice; settings: UACC-62, Early-SC, intravenous
Experimental: as §1, §2

C-6 (rat glioma) = assay: in vivo efficacy, C-6 (rat glioma) in nude rats; settings: i.v.; for BW Loss / Growth Delay % [(T − C)/C] / Optimal % T/C: C-6, Early-SC, nude rats
[8] = tested on: LS-174 (human colon cancer); assay: in vivo efficacy, LS-174 (human colon cancer) in nude rats; settings: i.v.; for BW Loss / Growth Delay % [(T − C)/C] / Optimal % T/C: LS-174, Early-SC, nude rats
[9] = Early-SC, QD X5, 0.054 mg/kg/dose

## C=C1C[C@H]2C=Nc3cc(OCCCOc4cc5c(cc4OC)C(=O)N4CC(=C)C[C@H]4C=N5)c(OC)cc3C(=O)N2C1 [NSC 694501]
[1]; Q4D X3, intravenous
  MTD at 9 days: 0.45 mg/kg
[1]; QD X5, intravenous
  MTD at 5 days: 0.081 mg/kg
OVCAR-5 (ovarian ca); Q4D X3, 0.45 mg/kg/dose
  BW Loss: 21.2%
  Growth Delay % [(T − C)/C]: 32%
  Optimal % T/C: 38%
OVCAR-5 (ovarian ca); QD X5, 0.081 mg/kg/dose
  BW Loss: 2.6%
  Growth Delay % [(T − C)/C]: 102%
  Optimal % T/C: 13%
LOX (melanoma); [9]
  BW Loss: 17.6%
  Growth Delay % [(T − C)/C]: 498%
  Optimal % T/C: 7%
  value in parentheses in Growth Delay column: 4.3 L
LOX (melanoma); IP, QD X5, 0.40 mg/kg/dose
  BW Loss: 20.7%
  ILS: [−10% ILS]
[2]; Early-SC
  MTD at 5 days: 0.054 mg/kg
[2]; IP
  MTD at 5 days: 0.4 mg/kg
[3]; i.v bolus
  cell kill: multi-log cell kill in 4 models
  growth delays: significant growth delays in 7 models
[3]; i.v bolus drug delivery
  activity in tumor models: active in each of the 8 tumor models
[4]
  MTD at 5 days: ~0.12 mg/kg
[5]; hollow fiber assay
  cell lines killed: three cell lines killed: UACC-62 melanoma, OVCAR-3 ovarian cancer, and MDA-MB-435 breast cancer
[5]; intraperitoneal implants
  hollow fiber assay score, intraperitoneal [i.p.]: 40
[5]; ip + sc, maximum possible score 96
  hollow fiber assay total score: 54
[5]; subcutaneous implants
  hollow fiber assay score, subcutaneous [s.c.]: 14
[6]
  MTD at 9 days: 0.45 mg/kg
MDA-MB-435 (breastca)
  BW Loss: 19.8%
  Growth Delay % [(T − C)/C]: 41%
  Optimal % T/C: 3%
  tumor free (tf): 1 tf
[7]; Q4D X3, intravenous
  MTD at 9 days: 0.45 mg/kg
[7]; QD X5, intravenous
  MTD at 5 days: 0.054 mg/kg
UACC-62 (melanoma); Q4D X3, .45 mg/kg/dose
  BW Loss: 20.9%
  Growth Delay % [(T − C)/C]: 43%
  Optimal % T/C: 28%
UACC-62 (melanoma); QD X5, 0.054 mg/kg/dose
  BW Loss: 20.2%
  Growth Delay % [(T − C)/C]: 150%
  Optimal % T/C: 26%
  value in parentheses in Growth Delay column: 0.9 L
C-6 (rat glioma); QD X5, 0.018 mg/kg
  BW Loss: 0.0%
  Growth Delay % [(T − C)/C]: 13%
  Optimal % T/C: 56%
C-6 (rat glioma); QD X5, 0.027 mg/kg
  BW Loss: 6.3%
  Growth Delay % [(T − C)/C]: 20%
  Optimal % T/C: 47%
C-6 (rat glioma); QD X5, 0.040 mg/kg
  BW Loss: 0.8%
  Growth Delay % [(T − C)/C]: 49%
  Optimal % T/C: 24%
C-6 (rat glioma); nude rats bearing C-6, 27 and 40 μg/kg/dose, qDx5
  tolerability and efficacy: well tolerated and efficacious
[8]; QD X5, 0.018 mg/kg
  BW Loss: 0.0%
  Growth Delay % [(T − C)/C]: 43%
  Optimal % T/C: 41%
[8]; QD X5, 0.027 mg/kg
  BW Loss: 2.2%
  Growth Delay % [(T − C)/C]: 93%
  Optimal % T/C: 21%
[8]; QD X5, 0.040 mg/kg
  BW Loss: 1.4%
  Growth Delay % [(T − C)/C]: 83%
  Optimal % T/C: 17%
[8]; nude rats bearing LS-174, 27 and 40 μg/kg/dose, qDx5
  tolerability and efficacy: well tolerated and efficacious

Source: patent publication US7834005B2, “Pyrrolobenzodiazepine derivatives, compositions comprising the same and methods related thereto” (The United States of America as represented by the …, priority 2003, dated 2010)
